Source: ChEMBL document CHEMBL1148972, “Isomalabaricane-type compounds from the marine sponge Rhabdastrella aff. distincta” (J Nat Prod, 2004)
In brackets after ≈: the same amount, converted by molar mass.

Test system: HL-60
Experiment: Cytotoxicity against human HL60 cells after 48 hrs by MTT assay
Type: functional, cell-based
Conditions: HL-60, 48 h
With `CC(=O)/C=C\C(=O)/C(C)=C/C=C/C(C)=C1/C(=O)C[C@H]2[C@@]3(C)CCC(=O)C(C)(C)[C@@H]3CC[C@]12C` the IC50 was > 5 µg/mL.
For `CC1=CC[C@@H](/C(C)=C/C=C/C(C)=C2\C(=O)C[C@H]3[C@@]4(C)CCC(=O)C(C)(C)[C@@H]4CC[C@]23C)OC1=O` [22,23-DIHYDROSTELLETTIN B], the IC50 was > 5 µg/mL.
With `COc1cc2c(c(OC)c1OC)-c1ccc(OC)c(=O)cc1[C@@H](NC(C)=O)CC2` [COLCHICINE] the IC50 was 1.6 µg/mL (≈ 4.01 µM).
For `CC(=O)/C=C/C(=O)/C(C)=C/C=C/C(C)=C1\C(=O)C[C@H]2[C@@]3(C)CCC(=O)C(C)(C)[C@@H]3CC[C@]12C` [GEODITIN A], the IC50 was > 5 µg/mL.
With `CC(=O)/C=C/C(=O)/C(C)=C/C=C/C(C)=C1\C(=O)C[C@H]2[C@@]3(C)CC[C@H](OC(C)=O)C(C)(C)[C@@H]3CC[C@]12C` [GEODITIN B] the IC50 was > 5 µg/mL.
Compound `CC(=O)/C=C\C(=O)/C(C)=C/C=C/C(C)=C1\C(=O)C[C@H]2[C@@]3(C)CCC(=O)C(C)(C)[C@@H]3CC[C@]12C` [ISOGEODITIN A] has an IC50 of 0.13 µg/mL (≈ 0.288 µM).
`CC(=O)/C=C\C(=O)/C(C)=C/C=C/C(C)=C1\C(=O)C[C@H]2[C@@]3(C)CC[C@H](OC(C)=O)C(C)(C)[C@@H]3CC[C@]12C` [ISOGEODITIN B] gave an IC50 of 0.5 µg/mL (≈ 1.01 µM).

Test system: not listed separately
Experiment: Cytotoxicity against human PC-3MIE8 cells after 48 hrs by MTT assay
Type: functional, cell-based
Conditions: PC-3MIE8, 48 h
For `CC(=O)/C=C\C(=O)/C(C)=C/C=C/C(C)=C1/C(=O)C[C@H]2[C@@]3(C)CCC(=O)C(C)(C)[C@@H]3CC[C@]12C`, the IC50 was > 5 µg/mL.
In the case of `CC1=CC[C@@H](/C(C)=C/C=C/C(C)=C2\C(=O)C[C@H]3[C@@]4(C)CCC(=O)C(C)(C)[C@@H]4CC[C@]23C)OC1=O` [22,23-DIHYDROSTELLETTIN B], the IC50 is reported as > 5 µg/mL.
In the case of `COc1cc2c(c(OC)c1OC)-c1ccc(OC)c(=O)cc1[C@@H](NC(C)=O)CC2` [COLCHICINE], the IC50 is reported as 0.7 µg/mL (≈ 1.75 µM).
In the case of `CC(=O)/C=C/C(=O)/C(C)=C/C=C/C(C)=C1\C(=O)C[C@H]2[C@@]3(C)CCC(=O)C(C)(C)[C@@H]3CC[C@]12C` [GEODITIN A], the IC50 is reported as > 5 µg/mL.
In the case of `CC(=O)/C=C/C(=O)/C(C)=C/C=C/C(C)=C1\C(=O)C[C@H]2[C@@]3(C)CC[C@H](OC(C)=O)C(C)(C)[C@@H]3CC[C@]12C` [GEODITIN B], the IC50 is reported as > 5 µg/mL.
`CC(=O)/C=C\C(=O)/C(C)=C/C=C/C(C)=C1\C(=O)C[C@H]2[C@@]3(C)CCC(=O)C(C)(C)[C@@H]3CC[C@]12C` [ISOGEODITIN A] showed an IC50 of 0.07 µg/mL (≈ 0.155 µM).
With `CC(=O)/C=C\C(=O)/C(C)=C/C=C/C(C)=C1\C(=O)C[C@H]2[C@@]3(C)CC[C@H](OC(C)=O)C(C)(C)[C@@H]3CC[C@]12C` [ISOGEODITIN B] the IC50 was 3.4 µg/mL (≈ 6.87 µM).

Test system: BGC-823
Experiment: Cytotoxicity against human BGC823 cells after 48 hrs by MTT assay
Type: functional, cell-based
Conditions: BGC-823, 48 h
For `CC(=O)/C=C\C(=O)/C(C)=C/C=C/C(C)=C1/C(=O)C[C@H]2[C@@]3(C)CCC(=O)C(C)(C)[C@@H]3CC[C@]12C`, the IC50 was > 5 µg/mL.
In the case of `CC1=CC[C@@H](/C(C)=C/C=C/C(C)=C2\C(=O)C[C@H]3[C@@]4(C)CCC(=O)C(C)(C)[C@@H]4CC[C@]23C)OC1=O` [22,23-DIHYDROSTELLETTIN B], the IC50 is reported as > 5 µg/mL.
`COc1cc2c(c(OC)c1OC)-c1ccc(OC)c(=O)cc1[C@@H](NC(C)=O)CC2` [COLCHICINE] showed an IC50 of 0.6 µg/mL (≈ 1.5 µM).
With `CC(=O)/C=C/C(=O)/C(C)=C/C=C/C(C)=C1\C(=O)C[C@H]2[C@@]3(C)CCC(=O)C(C)(C)[C@@H]3CC[C@]12C` [GEODITIN A] the IC50 was > 5 µg/mL.
In the case of `CC(=O)/C=C/C(=O)/C(C)=C/C=C/C(C)=C1\C(=O)C[C@H]2[C@@]3(C)CC[C@H](OC(C)=O)C(C)(C)[C@@H]3CC[C@]12C` [GEODITIN B], the IC50 is reported as > 5 µg/mL.
Work on `CC(=O)/C=C\C(=O)/C(C)=C/C=C/C(C)=C1\C(=O)C[C@H]2[C@@]3(C)CCC(=O)C(C)(C)[C@@H]3CC[C@]12C` [ISOGEODITIN A] yielded an IC50 of 0.47 µg/mL (≈ 1.04 µM).
Work on `CC(=O)/C=C\C(=O)/C(C)=C/C=C/C(C)=C1\C(=O)C[C@H]2[C@@]3(C)CC[C@H](OC(C)=O)C(C)(C)[C@@H]3CC[C@]12C` [ISOGEODITIN B] yielded an IC50 of 2.2 µg/mL (≈ 4.45 µM).

Test system: not listed separately
Experiment: Cytotoxicity against human […] cells after 48 hrs by MTT assay
Type: functional, cell-based
Conditions: not given
With `CC(=O)/C=C\C(=O)/C(C)=C/C=C/C(C)=C1/C(=O)C[C@H]2[C@@]3(C)CCC(=O)C(C)(C)[C@@H]3CC[C@]12C` the IC50 was > 5 µg/mL.
With `CC1=CC[C@@H](/C(C)=C/C=C/C(C)=C2\C(=O)C[C@H]3[C@@]4(C)CCC(=O)C(C)(C)[C@@H]4CC[C@]23C)OC1=O` [22,23-DIHYDROSTELLETTIN B] the IC50 was > 5 µg/mL.
In the case of `COc1cc2c(c(OC)c1OC)-c1ccc(OC)c(=O)cc1[C@@H](NC(C)=O)CC2` [COLCHICINE], the IC50 is reported as 0.2 µg/mL (≈ 0.501 µM).
For `CC(=O)/C=C/C(=O)/C(C)=C/C=C/C(C)=C1\C(=O)C[C@H]2[C@@]3(C)CCC(=O)C(C)(C)[C@@H]3CC[C@]12C` [GEODITIN A], the IC50 was > 5 µg/mL.
In the case of `CC(=O)/C=C/C(=O)/C(C)=C/C=C/C(C)=C1\C(=O)C[C@H]2[C@@]3(C)CC[C@H](OC(C)=O)C(C)(C)[C@@H]3CC[C@]12C` [GEODITIN B], the IC50 is reported as > 5 µg/mL.
In the case of `CC(=O)/C=C\C(=O)/C(C)=C/C=C/C(C)=C1\C(=O)C[C@H]2[C@@]3(C)CCC(=O)C(C)(C)[C@@H]3CC[C@]12C` [ISOGEODITIN A], the IC50 is reported as 1.2 µg/mL (≈ 2.66 µM).
`CC(=O)/C=C\C(=O)/C(C)=C/C=C/C(C)=C1\C(=O)C[C@H]2[C@@]3(C)CC[C@H](OC(C)=O)C(C)(C)[C@@H]3CC[C@]12C` [ISOGEODITIN B] showed an IC50 of 2.2 µg/mL (≈ 4.45 µM).

Test system: Bel-7402
Experiment: Cytotoxicity against human Bel7402 cells after 48 hrs by MTT assay
Type: functional, cell-based
Conditions: Bel-7402, 48 h
For `CC(=O)/C=C\C(=O)/C(C)=C/C=C/C(C)=C1/C(=O)C[C@H]2[C@@]3(C)CCC(=O)C(C)(C)[C@@H]3CC[C@]12C`, the IC50 was > 5 µg/mL.
In the case of `CC1=CC[C@@H](/C(C)=C/C=C/C(C)=C2\C(=O)C[C@H]3[C@@]4(C)CCC(=O)C(C)(C)[C@@H]4CC[C@]23C)OC1=O` [22,23-DIHYDROSTELLETTIN B], the IC50 is reported as > 5 µg/mL.
`COc1cc2c(c(OC)c1OC)-c1ccc(OC)c(=O)cc1[C@@H](NC(C)=O)CC2` [COLCHICINE] showed an IC50 of 0.3 µg/mL (≈ 0.751 µM).
With `CC(=O)/C=C/C(=O)/C(C)=C/C=C/C(C)=C1\C(=O)C[C@H]2[C@@]3(C)CCC(=O)C(C)(C)[C@@H]3CC[C@]12C` [GEODITIN A] the IC50 was > 5 µg/mL.
For `CC(=O)/C=C/C(=O)/C(C)=C/C=C/C(C)=C1\C(=O)C[C@H]2[C@@]3(C)CC[C@H](OC(C)=O)C(C)(C)[C@@H]3CC[C@]12C` [GEODITIN B], the IC50 was > 5 µg/mL.
With `CC(=O)/C=C\C(=O)/C(C)=C/C=C/C(C)=C1\C(=O)C[C@H]2[C@@]3(C)CCC(=O)C(C)(C)[C@@H]3CC[C@]12C` [ISOGEODITIN A] the IC50 was 3.7 µg/mL (≈ 8.21 µM).
`CC(=O)/C=C\C(=O)/C(C)=C/C=C/C(C)=C1\C(=O)C[C@H]2[C@@]3(C)CC[C@H](OC(C)=O)C(C)(C)[C@@H]3CC[C@]12C` [ISOGEODITIN B] showed an IC50 of 3.9 µg/mL (≈ 7.88 µM).

Test system: HeLa
Experiment: Cytotoxicity against human HeLa cells after 48 hrs by MTT assay
Type: functional, cell-based
Conditions: not given
With `CC(=O)/C=C\C(=O)/C(C)=C/C=C/C(C)=C1/C(=O)C[C@H]2[C@@]3(C)CCC(=O)C(C)(C)[C@@H]3CC[C@]12C` the IC50 was > 5 µg/mL.
With `CC1=CC[C@@H](/C(C)=C/C=C/C(C)=C2\C(=O)C[C@H]3[C@@]4(C)CCC(=O)C(C)(C)[C@@H]4CC[C@]23C)OC1=O` [22,23-DIHYDROSTELLETTIN B] the IC50 was > 5 µg/mL.
With `COc1cc2c(c(OC)c1OC)-c1ccc(OC)c(=O)cc1[C@@H](NC(C)=O)CC2` [COLCHICINE] the IC50 was 0.1 µg/mL (≈ 0.25 µM).
In the case of `CC(=O)/C=C/C(=O)/C(C)=C/C=C/C(C)=C1\C(=O)C[C@H]2[C@@]3(C)CCC(=O)C(C)(C)[C@@H]3CC[C@]12C` [GEODITIN A], the IC50 is reported as > 5 µg/mL.
With `CC(=O)/C=C/C(=O)/C(C)=C/C=C/C(C)=C1\C(=O)C[C@H]2[C@@]3(C)CC[C@H](OC(C)=O)C(C)(C)[C@@H]3CC[C@]12C` [GEODITIN B] the IC50 was > 5 µg/mL.
With `CC(=O)/C=C\C(=O)/C(C)=C/C=C/C(C)=C1\C(=O)C[C@H]2[C@@]3(C)CCC(=O)C(C)(C)[C@@H]3CC[C@]12C` [ISOGEODITIN A] the IC50 was 0.35 µg/mL (≈ 0.777 µM).
`CC(=O)/C=C\C(=O)/C(C)=C/C=C/C(C)=C1\C(=O)C[C@H]2[C@@]3(C)CC[C@H](OC(C)=O)C(C)(C)[C@@H]3CC[C@]12C` [ISOGEODITIN B] showed an IC50 of 3 µg/mL (≈ 6.06 µM).
